Data published in article PMC11025159 (Journal of Translational Medicine, 2024).

Experiments:
[1] = biological target: T1, JAK3 (Homo sapiens, UniProt P52333); experiment: Cell-free kinase assay JAK3; type: biochemical; details: structure-activity statement
T1 construct: purchased Promega Corporation V3701
T1 sequence (P52333 1-1124): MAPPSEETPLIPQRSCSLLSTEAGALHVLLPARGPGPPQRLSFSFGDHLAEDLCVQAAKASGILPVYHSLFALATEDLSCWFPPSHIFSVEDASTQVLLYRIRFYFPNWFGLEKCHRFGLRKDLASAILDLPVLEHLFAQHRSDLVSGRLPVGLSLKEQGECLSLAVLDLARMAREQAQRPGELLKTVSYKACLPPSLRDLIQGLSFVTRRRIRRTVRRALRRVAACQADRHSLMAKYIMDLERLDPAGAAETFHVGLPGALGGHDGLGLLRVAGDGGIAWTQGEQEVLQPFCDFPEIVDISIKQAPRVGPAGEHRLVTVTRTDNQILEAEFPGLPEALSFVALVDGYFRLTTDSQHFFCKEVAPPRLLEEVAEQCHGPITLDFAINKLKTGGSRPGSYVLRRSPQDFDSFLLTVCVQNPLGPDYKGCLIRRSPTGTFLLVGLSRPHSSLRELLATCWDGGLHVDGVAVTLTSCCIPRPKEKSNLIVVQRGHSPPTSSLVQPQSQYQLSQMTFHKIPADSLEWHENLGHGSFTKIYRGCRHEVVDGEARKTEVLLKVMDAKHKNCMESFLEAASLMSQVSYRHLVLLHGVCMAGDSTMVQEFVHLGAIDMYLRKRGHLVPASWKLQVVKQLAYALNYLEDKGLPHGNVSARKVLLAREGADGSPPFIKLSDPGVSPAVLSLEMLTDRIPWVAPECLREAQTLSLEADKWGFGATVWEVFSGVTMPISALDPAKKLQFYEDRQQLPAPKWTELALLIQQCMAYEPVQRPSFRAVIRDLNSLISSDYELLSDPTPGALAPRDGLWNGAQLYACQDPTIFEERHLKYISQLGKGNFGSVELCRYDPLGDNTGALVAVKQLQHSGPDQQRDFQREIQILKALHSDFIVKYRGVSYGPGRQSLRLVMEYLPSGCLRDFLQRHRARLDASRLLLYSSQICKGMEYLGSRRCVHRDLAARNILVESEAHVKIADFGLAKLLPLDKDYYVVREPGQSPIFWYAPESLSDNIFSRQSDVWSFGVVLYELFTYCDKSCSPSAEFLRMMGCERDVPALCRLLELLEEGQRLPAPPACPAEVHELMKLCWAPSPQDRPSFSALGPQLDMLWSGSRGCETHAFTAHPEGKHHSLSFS
Experimental: The cell-free kinase assays of small molecules were determined by following the manufacturer-recommended protocols. Different concentrations in triplicate were used to determine the IC50 value of the hit molecules (active molecules). For data analysis, GraphPad Prism V9.5 Software and a sigmoidal dose–response (variable slope) equation were used. Each value represents an average of three replicates per concentration.

[2] = test system: HCT-116; experiment: MTT cell viability assay HCT-116; type: cell-based, human; details: 48 h
Experimental: (§1) Cell viability was evaluated using an MTT colorimetric assay. Cells were seeded (10^5 cells/mL) in 96-well plates and allowed to grow overnight at 37 ℃ with 5% CO2 in a cell-culture incubator. On the following day, the cells were treated with small molecules at different concentrations (0.2–10 micro-molar) or vehicle (DMSO). Cells were then further incubated for 48 h.

[3] = test system: MCF-7; experiment: MTT cell viability assay MCF-7; type: cell-based, human; details: 48 h
Experimental: as §1

[4] = test system: A549; experiment: MTT cell viability assay A549; type: cell-based, human; details: 48 h
Experimental: as §1

[5] = test system: Mia PaCa-2; experiment: MTT cell viability assay Mia PaCa-2; type: cell-based, human; details: 48 h
Experimental: as §1

[6] = test system: Panc-2; experiment: MTT cell viability assay Panc-2; type: cell-based; details: 48 h
Experimental: as §1

[7] = test system: HEK-293; experiment: MTT cell viability assay HEK-293; type: cell-based, human; details: read-out: IC50 HEK-293; MTT, 48 h; normal cell line
Experimental: as §1

Row | SMILES | inhibitory activity against JAK3 in kinase assays and in MTT assays [1] | IC50 [2] | IC50 [3] | IC50 [4] | IC50 [5] | IC50 [6] | IC50 [7]
1 | c1coc(-c2cnc3[nH]cc(-c4ccnc(NC5CC5)n4)c3c2)c1 [MJ01] | significant inhibitory activity | 1.89 µM | 1.65 µM | 0.47 µM | 8.3 µM | 3.16 µM | > 100 µM
2 | CSc1ccccc1-c1cnc2[nH]cc(-c3ccnc(NC4CC4)n3)c2c1 [MJ03] | significant inhibitory activity | 8.2 µM | 10.2 µM | 2.88 µM | 18.1 µM | 11 µM | > 100 µM
3 | Clc1ccc(-c2cnc3[nH]cc(-c4ccnc(NC5CC5)n4)c3c2)cc1 [MJ05] | significant inhibitory activity | 8.72 µM | 4.47 µM | 3.71 µM | 6.59 µM | 7.76 µM | > 100 µM
4 | Fc1cccc(-c2cnc3[nH]cc(-c4ccnc(NC5CC5)n4)c3c2)c1 [MJ06] | significant inhibitory activity | 1.52 µM | 3.31 µM | 4.31 µM | 3.66 µM | 7.33 µM | > 100 µM
5 | Nc1nccc(-c2c[nH]c3ncc(-c4cccc(C(F)(F)F)c4)cc23)n1 [MJ08] | less active | 1.18 µM | 6.88 µM | 5.1 µM | 5.38 µM | 19.3 µM | > 100 µM

Now from value to compound, other results behind:

Row | inhibitory activity against JAK3 in kinase assays and in MTT assays [1] | IC50 [2] | IC50 [3] | IC50 [4] | IC50 [5] | IC50 [6] | SMILES | IC50 [7]
6 | significant inhibitory activity | 3.12 µM | 1.83 µM | 3.13 µM | 7.1 µM | 4.67 µM | CSc1ccc(-c2cnc3[nH]cc(-c4ccnc(NC5CC5)n4)c3c2)cc1 [MJ02] | > 100 µM
7 | less active | 6.34 µM | 1.38 µM | 5.55 µM | 3.22 µM | 3.12 µM | Nc1nccc(-c2c[nH]c3ncc(-c4cccc(F)c4)cc23)n1 [MJ07] | > 100 µM
8 | significant inhibitory activity | 3.22 µM | 11.5 µM | 5.74 µM | 2.16 µM | 26.3 µM | c1cncc(-c2cnc3[nH]cc(-c4ccnc(NCCN5CCOCC5)n4)c3c2)c1 [MJ09] | > 100 µM
9 | significant inhibitory activity | 5.36 µM | 8.61 µM | 6.99 µM | 6.71 µM | 33.6 µM | Fc1ccc(-c2cnc3[nH]cc(-c4ccnc(NCCN5CCOCC5)n4)c3c2)cc1 [MJ10] | > 100 µM
